Assay results: PubChem BioAssay AID1033 (Sanford-Burnham Center for Chemical Genomics, 2008)
The source made the active and inactive calls. No rule for the calls is given here.

Each compound was assayed against Chaperone protein DnaK (Escherichia coli (strain K12)) (UniProt P0A6Y8) (assay: binders of DnaK substrate-binding domain, biophysical, NMR, chaperone (AID 1033)). Details: Purified DnaK SBD, NMR ligand binding.
Sequence of Chaperone protein DnaK (Escherichia coli (strain K12)) (P0A6Y8 whole entry, looked up, the tested form may be a part): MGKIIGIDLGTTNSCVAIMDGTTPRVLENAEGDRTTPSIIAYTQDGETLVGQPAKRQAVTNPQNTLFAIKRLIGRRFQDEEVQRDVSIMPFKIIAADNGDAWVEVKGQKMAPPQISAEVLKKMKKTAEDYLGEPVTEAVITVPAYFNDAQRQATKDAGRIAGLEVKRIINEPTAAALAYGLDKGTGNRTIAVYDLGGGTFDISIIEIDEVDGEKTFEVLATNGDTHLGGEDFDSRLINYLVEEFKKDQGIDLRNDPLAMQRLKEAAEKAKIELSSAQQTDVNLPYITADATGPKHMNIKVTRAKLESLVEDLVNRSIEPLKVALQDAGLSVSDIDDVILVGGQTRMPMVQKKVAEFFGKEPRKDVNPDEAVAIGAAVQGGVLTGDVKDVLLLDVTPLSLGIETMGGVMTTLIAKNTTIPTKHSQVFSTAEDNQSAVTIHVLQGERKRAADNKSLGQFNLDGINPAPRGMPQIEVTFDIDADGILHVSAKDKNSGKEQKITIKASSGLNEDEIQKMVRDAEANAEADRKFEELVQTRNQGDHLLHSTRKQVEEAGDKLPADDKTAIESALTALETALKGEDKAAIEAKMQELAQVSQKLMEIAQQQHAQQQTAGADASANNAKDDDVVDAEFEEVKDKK
In the case of `O=c1[nH]c(=S)[nH]c2c1CCC2`, the Kd is reported as > 4 mM (inactive). With `Cc1ccc(-c2c(C)n([O-])c(C)c(C)[n+]2=O)cc1` the Kd was > 4 mM (inactive). With `CCC1C(=O)OCC1Cc1cncn1C` (centres undefined) the Kd was > 4 mM (inactive). In the case of `O=C(O)CNS(=O)(=O)c1cccs1`, the Kd is reported as > 4 mM (inactive). `O=C(NCc1ccccc1Br)c1ccco1` was tested, and the Kd was > 4 mM (inactive). In the case of `CSc1nsc(SCc2cnc(C)nc2N)n1`, the Kd is reported as > 4 mM (inactive). With `CC(C)=NNC(=O)C(=O)Nc1ccc(F)cc1` the Kd was > 4 mM (inactive). In the case of `COc1ccc(-c2cn[nH]c2N)c(OC)c1`, the Kd is reported as > 4 mM (inactive). For `CN1C2CC3C[C@H]1C(O3)C2O` (some centres undefined), the Kd was > 4 mM (inactive). In the case of `O=C(Nc1cccnc1)c1cnn2cccnc12`, the Kd is reported as > 4 mM (inactive). With `CC(=O)c1cc(C)ccc1O` the Kd was > 4 mM (inactive). In the case of `COc1ccc(/C=C/c2cc(O)cc(O)c2)cc1`, the Kd is reported as > 4 mM (inactive). `Cn1c(=O)n(CC(=O)N2CCOCC2)c2ccccc21` was tested, and the Kd was > 4 mM (inactive). In the case of `O=C(Nc1ccon1)c1ccc(Br)o1`, the Kd is reported as > 4 mM (inactive). `Cn1cc(Cl)c(C(=O)NC2CCCC2)n1` was tested, and the Kd was > 4 mM (inactive). In the case of `O=C1NC(=S)N/C1=C\c1cccnc1`, the Kd is reported as > 4 mM (inactive). With `COc1cc(OC)c2c(=O)c(-c3ccc4c(c3)OCO4)coc2c1` the Kd was > 4 mM (inactive). `O=C(NC(O)C(=O)c1ccccc1)c1ccco1` (centres undefined) was tested, and the Kd was > 4 mM (inactive). For `CC(=O)O[C@@H]1CC2C(C)(C)[C@H](O)C[C@H](O)[C@]2(C)C2CC[C@@]3(C)C(=CC(=O)O[C@H]3c3ccoc3)[C@@]21C` (some centres undefined), the Kd was > 4 mM (inactive). With `CC(=O)Nn1c(=O)[nH]c2ccccc2c1=O` the Kd was > 4 mM (inactive). With `Nc1ccc(-c2cn3c(n2)SCC3)cc1` the Kd was > 4 mM (inactive). `Cn1c(-c2ccccc2F)n[nH]c1=S` was tested, and the Kd was > 4 mM (inactive). In the case of `CS(=O)(=O)Nc1nnc(Cc2ccccc2)s1`, the Kd is reported as > 4 mM (inactive). In the case of `CC(C)[C@@H]1CC[C@@H](C)C[C@H]1OC(=O)c1ccccc1`, the Kd is reported as > 4 mM (inactive). In the case of `C=C1C2CC[C@@]3(C)[C@H](c4ccoc4)OC(=O)C[C@]13O[C@H]1CC(O)C(C)(C)C(CC(=O)OC)[C@@]21C` (some centres undefined), the Kd is reported as > 4 mM (inactive). With `O=C(O)c1cn(-c2ccccc2)nc1-c1cccnc1` the Kd was > 4 mM (inactive). In the case of `Cc1nnc2n(c1=O)N=C(c1ccccc1)CS2`, the Kd is reported as > 4 mM (inactive). For `Cn1c(SCC(N)=O)nnc1-c1c[nH]c2ccccc12`, the Kd was > 4 mM (inactive). For `Oc1ccc2nonc2c1`, the Kd was > 4 mM (inactive). With `Cc1cc[n+](-c2nc([O-])sc2C=O)cc1` the Kd was > 4 mM (inactive). In the case of `Nc1nnc(SCc2ccc(F)cc2Cl)s1`, the Kd is reported as > 4 mM (inactive). For `Cc1cc(C)n2c(SCc3cccs3)nnc2n1`, the Kd was > 4 mM (inactive). For `NC1=C(c2ccccc2)C(=O)c2ccccc21`, the Kd was > 4 mM (inactive). For `CNCc1ccco1`, the Kd was > 4 mM (inactive). In the case of `CC(=O)c1c(C)nc2ccccc2c1N`, the Kd is reported as > 4 mM (inactive). `NC(=O)C1CC2C=CC1C2` (centres undefined) was tested, and the Kd was > 4 mM (inactive). For `Nc1ccccc1N1CCOCC1`, the Kd was > 4 mM (inactive). In the case of `Cc1occc1C(=O)Nc1nnc(-c2ccncc2)s1`, the Kd is reported as > 4 mM (inactive). `O=C(CCc1ccc(O)cc1)c1c(O)cc(O)cc1O` was tested, and the Kd was > 4 mM (inactive). For `COc1ccccc1N1C(=N)SCC1=O`, the Kd was > 4 mM (inactive). In the case of `COC(=O)[C@@H]1C(O)CC[C@H]2CN3CCc4c([nH]c5ccccc45)[C@@H]3C[C@@H]21` (some centres undefined), the Kd is reported as > 4 mM (inactive). `CC(=O)Nc1ccc(C)cc1NC(C)=O` was tested, and the Kd was > 4 mM (inactive). `O=C(O)CCC(=O)Nc1nccs1` was tested, and the Kd was > 4 mM (inactive). For `CCOC(=O)c1c(C)n([O-])c2ccccc2[n+]1=O`, the Kd was > 4 mM (inactive). For `O=C1CC(=O)N(Cc2ccco2)C(=S)N1`, the Kd was > 4 mM (inactive). In the case of `OC1CNCc2cc3c(cc21)OCCO3` (centres undefined), the Kd is reported as > 4 mM (inactive). For `COC(=O)N(c1ccccc1)P1(=S)OCCO1`, the Kd was > 4 mM (inactive). For `c1ccc(SCc2nc(-c3ccccn3)no2)cc1`, the Kd was > 4 mM (inactive). With `Cc1cc(N)on1` the Kd was > 4 mM (inactive).
